Data as given in patent US20130274270A1, “POLYMORPHS OF 3-CHLORO-4[(2R)-2-(4-CHLOROPHENYL)-4-[(1R)-1-(4-CYANOPHENYL)ETHYL]-1-PIPERAZINYL]-BENZONITRILE, PHARMACEUTICAL COMPOSITIONS AND METHOD OF USE COMPRISING SAID POLYMORPHS, AND A PROCESS FOR PREPARING THEM” (priority 2010, published 2013).
Where a name gives a salt, the structure may show the parent alone.

Assays:
Type in all cases: physicochemical
[1] = Competition slurry experiments
Procedure: Competition slurry experiments were conducted by combining approximately 100 milligrams of starting material with 1 milliliter of solvent in a 4 milliliter amber glass vial. A polytetrafluoroethylene coated magnetic stir bar was added to each vial. The slurry sample was stirred for one day and checked to confirm solids were still present. The sample was then seeded with forms identified during the polymorph screening and continued stirring at room temperature for 9 days. Solids were collected and analyzed to determine their crystal form.
The evaporative crystallization experiments from solutions produced another polymorph, termed Form II, and two suspected solvates or hydrates. Competition slurries were prepared with Form I, Form II and the suspected solvates or hydrates to confirm they were metastable with respect to Form 1. The competition slurries were prepared by dispersing Form II in isopropanol, a water/methanol mixture at a water activity of 0.5, and water.
A variable-temperature competition slurry was repeated using Forms I and III by suspending approximately 100 mg of each form in 2 milliliters of isopropanol at 4° C., room temperature, 40° C., and 50° C. The slurries were allowed to stir for 11 days and checked by PXRD. […] Afterwards, the solutions were seeded with Form I and stirred for 1 day.

[2] = Vapor sorption analysis (change in crystal form as a function of moisture); settings: 25° C.
Procedure: (§1) All powder X-ray diffraction (PXRD) data was collected using a Rigaku Miniflex instrument. Samples were analyzed on silicon zero background holders from 2 to 40 degrees two theta with a step size of 0.02 degrees two theta and a scan time of 0.6 seconds per step. Differential scanning calorimetry (DSC) data was collected using a Q100 DSC from TA Instruments. Samples were sealed in hermetic aluminum pans with two pinholes in the lid. All were analyzed under nitrogen purge. Vapor sorption analysis was performed using a SGA-100 from VTI Scientific Instruments. Thermogravimetric analysis (TGA) data was collected on a Q500 TGA from TA Instruments. Samples were analyzed in platinum pans under a nitrogen purge.
Change in crystal form as a function of moisture was evaluated by a SGA-100 vapor sorption instrument from VTI Scientific Instruments. Approximately 10 to 15 mg of material was exposed to a relative humidity range from 5% to 95% at 25° C. for 2 cycles.

[3] = Change in crystal form as a function of milling; settings: ground for 5 seconds at 3800 rpm
Procedure: Change in crystal form as a function of milling was conducted by grinding 79.2 milligrams of material in a stainless steel liner with a stainless steel ball pestle using a high speed mixer and amalgamator. The material was ground for 5 seconds at 3800 rpm.

[4] = Change in crystal form as a function of pressure (Carver press); settings: 13 mm die, approximately 4000 pounds, approximately 30 seconds
Procedure: Change in crystal form as a function of pressure was evaluated by pressing 86.0 mg of material in a 13 millimeter die at approximately 4000 pounds for approximately 30 seconds with a carver press.

[5] = DSC, heat of fusion rule; settings: monotropically related forms
Procedure: as §1

[6] = Solvent-mediated polymorphic transformation experiments (slurry / slow evaporation, PXRD)
Procedure: Solvent-mediated polymorphic transformation experiments were conducted by combining approximately 100 mg of starting material with 1 milliliter of solvent in a 4 mL amber glass vial. A polytetrafluoroethylene coated magnetic stir bar was added to each vial. For suspensions, the vials were sealed with polytetrafluoroethylene-lined caps and stirred using magnetic stir plates at 4° C., room temperature, or 50° C. for 14 days. For solutions, the vials were covered with aluminum foil and the solutions were slowly evaporated for 14 days. Solids were collected and analyzed for changes in crystal form. For this work, both slurry and evaporative crystallization was performed. Slurry experiments are utilized to identify the thermodynamically stable form while evaporative crystallizations favor the identification of metastable forms.

[7] = Thermogravimetric analysis (TGA)
Procedure: as §1

[8] = Change in crystal form as a function of heating (DSC heating rates); settings: DSC at 2° C., 10° C. and 20° C. per minute
Procedure: Change in crystal form as a function of heating was evaluated by analyzing samples of the material using the DSC at heating rates of 2, 10, and 20° C. per minute.

[9] = Photosensitivity; settings: especially in solution
[10] = Temperature-solubility profile in isopropanol (Crystal 16)
Procedure: To further characterize Form III, temperature-solubility profiles were constructed for both Form I and III. Different amounts of each form were suspended in 1 milliliter of isopropanol to prepare solutions of varying concentrations. The experiments were conducted on Crystal 16 to generate a temperature-solubility profile. The suspensions were slowly heated from 20° C. to 75° C. at 0.1° C./min and then cooled to 0° C. at a rate of 0.1° C. /min. The stirring rate was 700 rpm during the entire experiment.

[11] = Acetonitrile, RT/Solution, slowly evaporated 14 days
[12] = Dichloromethane, RT/Solution, slowly evaporated 14 days
[13] = Isopropanol, RT/Suspension, stirred 14 days
[14] = Water, RT/Suspension, stirred 14 days
[15] = Water/Methanol, 4° C./Suspension, stirred 14 days
[16] = Water/Methanol, 50° C./Suspension, stirred 14 days
[17] = Water/Methanol, RT/Suspension, stirred 14 days

Structure (SMILES) | Thermodynamic stability by competition slurry experiments [1] | PXRD Result [6, 11] | PXRD Result [6, 12] | PXRD Result [6, 13] | PXRD Result [6, 14] | PXRD Result [6, 15] | PXRD Result [6, 16] | PXRD Result [6, 17] | decomposition temperature [7] | sensitivity to light [9] | other results
C[C@H](c1ccc(C#N)cc1)N1CCN(c2ccc(C#N)cc2Cl)[C@H](c2ccc(Cl)cc2)C1 [Form I, 3-Chloro-4[(2R)-2-(4-chlorophenyl)-4-[(1R)-1-(4-cyanophenyl)ethyl]-1-piperazinyl]-benzonitrile] | a stable form | Form 2 | Form 2 | Form 1 | Form 1 | Form 1 | Form 1 | Form 1 | above 295 °C | – | polymorphic form change after vapor sorption analysis (PXRD before and after) ([2]; 5% to 95% relative humidity): no polymorphic form change; moisture absorbed by weight ([2]; between 5% and 95% relative humidity, 2 cycles): 0.07%; change in crystal form after milling [3]: no significant change in the crystal form; change in crystal form after pressing [4]: no significant change in the crystal form; relative thermodynamic stability of Form I and Form II (heat of fusion rule) [5]: the more thermodynamically stable; PXRD Result ([6]; Toluene, 50° C./Solution, 14 days): Amorphous; Thermodynamic stability indicated by slurry experiments ([6]; all slurry experiments except those in water, regardless of starting form, water activity or temperature): the most thermodynamically stable form; weight loss (TGA) ([7]; at 204° C.): 0.6%; change in crystal form as a function of heating rate [8]: no change in the crystal form
C[C@H](c1ccc(C#N)cc1)N1CCN(c2ccc(C#N)cc2Cl)[C@H](c2ccc(Cl)cc2)C1 [Compound A, 3-Chloro-4[(2R)-2-(4-chlorophenyl)-4-[(1R)-1-(4-cyanophenyl)ethyl]-1-piperazinyl]-benzonitrile] | – | – | – | – | – | – | – | – | – | photosensitive | –
C[C@H](c1ccc(C#N)cc1)N1CCN(c2ccc(C#N)cc2Cl)[C@H](c2ccc(Cl)cc2)C1 [Form II, 3-Chloro-4[(2R)-2-(4-chlorophenyl)-4-[(1R)-1-(4-cyanophenyl)ethyl]-1-piperazinyl]-benzonitrile] | – | Form II | Form II | Form I | Form II | Form I | Form I | Form I | 310 °C | – | Crystal form of solids collected from competition slurry ([1]; Form II dispersed in isopropanol, seeded with the other forms, room temperature): consistent with Form I; Crystal form of solids collected from competition slurry ([1]; Form II dispersed in water, seeded, room temperature): stayed as Form II; Crystal form of solids collected from competition slurry ([1]; Form II dispersed in water/methanol mixture at a water activity of 0.5, seeded, room temperature): consistent with Form I; weight loss (TGA) ([7]; at 226° C.): 0.6%
C[C@H](c1ccc(C#N)cc1)N1CCN(c2ccc(C#N)cc2Cl)[C@H](c2ccc(Cl)cc2)C1 [xinafoate salt] | – | – | – | – | – | – | – | – | – | – | weight loss (TGA) ([7]; at 146° C.): 0.2%; behaviour of the salt on melting (large weight loss at melt) ([7]; melt at 163.5° C.): disproportionates or decomposes with melting; weight loss (TGA) ([7]; starting from 161° C. and ending at 236° C.): 27.2%
CC(c1ccc(C#N)cc1)N1CCN(c2ccc(C#N)cc2Cl)C(c2ccc(Cl)cc2)C1 (stereo not drawn) [Formula II] | – | – | – | – | – | – | – | – | – | photosensitive | –
C[C@H](c1ccc(C#N)cc1)N1CCN(c2ccc(C#N)cc2Cl)[C@H](c2ccc(Cl)cc2)C1 [Form III, 3-Chloro-4[(2R)-2-(4-chlorophenyl)-4-[(1R)-1-(4-cyanophenyl)ethyl]-1-piperazinyl]-benzonitrile] | the most stable form | – | – | – | – | – | – | – | 312 °C | – | PXRD result of variable-temperature competition slurry of Forms I and III ([1]; about 100 mg of each form in 2 mL isopropanol at 4° C., room temperature, 40° C. and 50° C., 11 days): Form III was formed under all conditions; PXRD result after seeding with Form I ([1]; isopropanol slurries seeded with Form I and stirred for 1 day): remained as Form III; thermodynamic stability from temperature-solubility profile ([10]; above 29.4° C.): the most thermodynamically stable anhydrous crystalline form; relative solubility ([10]; at temperatures greater than 29.4° C.): less soluble than Form I; weight loss (TGA) ([7]; at 228° C.): 0.07%
